Laboratory results published in patent US12521393B2, “Cytotoxicity targeting chimeras for CCR2-expressing cells” (GLAXOSMITHKLINE INTELLECTUAL PROPERTY DEVELOPMENT LIMITED, priority 2021, dated 2026).
Structures can show the parent of a compound that is named as a salt.

Legend:
[1] = system: endogenous target monocytes in human PBMC; assay: PBMC ex vivo monocyte depletion flow cytometry assay (Example 200); assay type: cell-based; conditions: with anti-cotinine antibody (SEQ ID NO: 11/12), 18-24 hours, EC50 in molar, read-out: Ex Vivo Depletion Assay pEC50 (converted)
Summary of the method: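 Monocyte depletion is reported as pEC50, averaged or given individually across runs, and read by flow cytometry staining CD45, CD14 and CD4 with a viability dye. Compounds, diluted four-fold over 11 points from 1 mM DMSO stocks, were combined with 30 μg/mL Fc-enhanced anti-cotinine antibody and human PBMC, then incubated 18-24 h at 37° C.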

[2] = target: anti-cotinine antibody (SEQ ID NO: 11/12, rabbit variable region with human IgG1 Fc DE mutation); assay: SPR binding of anti-cotinine antibody to ARM compounds, Biacore T200, 37° C. (Example 202); conditions: SPR Biacore T200, 37° C., pH 7.4, antibody SEQ ID NO: 11/12 captured on protein A; Kd in molar
Description: Anti-cotinine antibodies having a heavy chain sequence of SEQ ID NO: 11 and a light chain sequence of SEQ ID NO: 12 (rabbit variable region with human IgG1 Fc domain containing a DE mutation (S239D/1332E)) were captured on one or more flow cells of a protein A sensor chip (Cytiva) using a Biacore T200 while reserving flow cell 1 as a reference. Following capture, a 3000 second wait step was included to reduce drift during compound analysis. ARM compounds of Formula (I) were then injected at 100 μL/min with 200 and 2000 second association and dissociation times. The entire experiment was run at 37° C. with running buffer containing 10 mM HEPES pH 7.4, 150 mM NaCl, 0.005% P20 and 1% DMSO. ARM compounds of Formula (I) were titrated with a top concentration of 200 nM using a 3-fold 5-point dilution series and a corresponding 5-injection buffer cycle was run for blank subtraction. Data were double referenced by subtracting the response of the reference flow cell from that of the antibody-containing flow cell and subsequently subtracting the referenced blank sensorgrams. Following compound analysis, the surface was regenerated using a 30 second injection of pH 1.5 glycine at a flow rate of 30 μL/min after which antibody was re-captured. The experiment was run using Biacore T200 control software and evaluated using Biacore T200 Evaluation software. Curves were fit with a 1:1 kinetic binding model to obtain kon (1/Ms), koff(1/s), Kd (M) determined as koff/kon, and residence time determined as 1/koff (s).
Anti-cotinine antibody was tested for binding to ARMs compounds of Formula (I) of the invention in the above assay in or more experimental runs and the results are shown in Table 5 below. Affinity is reported as a pKd value. The pKd value is the negative log of the Kd value, wherein the Kd value is the dissociation constant measured in molar (M) as noted above. For compounds tested in more than one experimental run, the pKd value is reported as an average

[3] = system: CCR2 expressing cells (CD11b+Ly6c+Hi) in peripheral blood; assay: In vivo depletion assay, flow cytometry of peripheral blood (Example 201); parameters: species or system human CCR2 knock-in mice (C57 background); conditions: hCCR2 knock-in mice, IV 0.1 mpk compound + 10 mpk anti-cotinine antibody (SEQ ID NO: 13/14), peripheral blood at 48 hr
Summary of the method: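 Mice dosed with compound formulated in saline/DMSO/PBS, with anti-cotinine antibody (rabbit variable region, mouse IgG2a Fc) where required, pre-incubated 30 min at room temperature. Terminal peripheral blood RBC-lysed, Fc-blocked, stained for CD45, CD3, CD11b, Ly6C, human CCR2 and 7AAD; percent depletion of CD11b+Ly6c+Hi cells determined by flow cytometry.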

[4] = target: human alpha1 nicotinic acetylcholine (nACh) receptor (Homo sapiens, UniProt P02708); assay: Nicotinic acetylcholine receptor antagonism assay, IONFlux automated patch clamp (Example 203); assay type: cell-based; conditions: for IC50: antagonism of ACh-stimulated human alpha1 nAChR current, patch clamp; for Emax at 10 µM: maximum percentage antagonism at maximum concentration tested 10 μM
Description: Cells expressing human alpha1 nicotinic acetylcholine (nACh) receptor (nAChR) were washed and dissociated using Trypsin containing buffer. Cells were then washed and seeded at a density of 3-5 million cells/mL and allowed to grow for 3 days. Then, 60-80 μL of cells were added to plates and incubated with dose response of an ARM compound of Formula (I) with a top concentration of either 10 μM or 100 μM. The receptor was then stimulated via addition of acetylcholine (ACh) and activation of the receptor was monitored via the IONFlux automated patch clamp system. IonFlux Data Analyzer software was utilized to perform leak subtraction and measure (min) peak current amplitude.
Data processing: (1) Current values recorded for vehicle only applications in individual traps/patterns were subtracted from corresponding current amplitude values for control, test article and control+test article. (2) Control response was calculated as % of the average response of the 3rd out of total 3 ACh (10 mM) applications alone. In rare situations, if the 3rd ACh response was obscured due to technical artifacts, the 2nd and/or 1st ACh (10 mM) application was considered as control. The peak current amplitude generated in the presence of each test article concentration was then used to calculate the % inhibition as compared to control response (10 mM ACh alone). These estimates were further corrected for vehicle response and run down corrected by normalizing with time matched control responses (10 mM ACh alone). The corrected percentages were then fit with a non-linear function in GraphPad Prism 6 (or later versions) to determine the IC50.
Exclusion criteria: (i) any n's with poor recording quality, (ii) control current amplitude <500 pA or (iii) significant outliers, as determined by the Grubbs test.
ARMs compounds of Formula (I) of the invention were tested for antagonism of the nAChR in the above assay in […] experimental runs and the results are shown in Table 7 below. Antagonistic activity of the compounds of Formula (I) of the invention is reported as an IC50 value (half maximal inhibitory concentration) and the maximum percentage antagonism observed at the highest concentration of compound of Formula (I) tested, as indicated in Table 7. For compounds tested in more than one experimental run, the IC50 value is reported as an average

Sequence of human alpha1 nicotinic acetylcholine (nACh) receptor (P02708 21-457): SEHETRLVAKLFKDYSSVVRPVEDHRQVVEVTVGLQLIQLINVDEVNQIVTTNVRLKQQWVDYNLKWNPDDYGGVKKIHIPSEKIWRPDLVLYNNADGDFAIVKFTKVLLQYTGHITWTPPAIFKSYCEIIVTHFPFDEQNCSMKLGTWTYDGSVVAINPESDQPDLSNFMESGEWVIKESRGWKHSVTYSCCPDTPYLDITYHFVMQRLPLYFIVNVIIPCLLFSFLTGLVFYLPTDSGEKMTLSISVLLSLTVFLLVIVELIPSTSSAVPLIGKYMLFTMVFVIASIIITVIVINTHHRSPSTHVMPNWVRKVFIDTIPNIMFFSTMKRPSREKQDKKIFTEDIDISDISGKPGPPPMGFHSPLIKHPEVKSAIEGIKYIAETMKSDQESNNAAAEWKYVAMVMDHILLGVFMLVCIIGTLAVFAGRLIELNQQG
Sequence of human alpha1 nicotinic acetylcholine (nACh) receptor (P11230 24-501 partner): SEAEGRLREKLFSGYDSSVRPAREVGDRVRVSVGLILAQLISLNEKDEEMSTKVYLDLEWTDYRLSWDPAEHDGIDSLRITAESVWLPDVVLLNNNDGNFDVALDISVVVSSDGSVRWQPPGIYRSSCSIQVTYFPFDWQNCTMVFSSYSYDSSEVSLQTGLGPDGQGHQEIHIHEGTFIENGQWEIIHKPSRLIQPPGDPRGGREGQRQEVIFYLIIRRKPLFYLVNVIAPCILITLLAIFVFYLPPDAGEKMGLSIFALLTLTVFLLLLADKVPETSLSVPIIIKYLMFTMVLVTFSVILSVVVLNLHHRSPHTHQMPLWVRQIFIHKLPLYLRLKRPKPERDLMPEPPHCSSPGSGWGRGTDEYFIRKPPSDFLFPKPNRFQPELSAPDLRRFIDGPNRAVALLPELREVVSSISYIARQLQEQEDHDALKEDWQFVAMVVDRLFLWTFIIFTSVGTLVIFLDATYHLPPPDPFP
Sequence of human alpha1 nicotinic acetylcholine (nACh) receptor (Q07001 22-517 partner): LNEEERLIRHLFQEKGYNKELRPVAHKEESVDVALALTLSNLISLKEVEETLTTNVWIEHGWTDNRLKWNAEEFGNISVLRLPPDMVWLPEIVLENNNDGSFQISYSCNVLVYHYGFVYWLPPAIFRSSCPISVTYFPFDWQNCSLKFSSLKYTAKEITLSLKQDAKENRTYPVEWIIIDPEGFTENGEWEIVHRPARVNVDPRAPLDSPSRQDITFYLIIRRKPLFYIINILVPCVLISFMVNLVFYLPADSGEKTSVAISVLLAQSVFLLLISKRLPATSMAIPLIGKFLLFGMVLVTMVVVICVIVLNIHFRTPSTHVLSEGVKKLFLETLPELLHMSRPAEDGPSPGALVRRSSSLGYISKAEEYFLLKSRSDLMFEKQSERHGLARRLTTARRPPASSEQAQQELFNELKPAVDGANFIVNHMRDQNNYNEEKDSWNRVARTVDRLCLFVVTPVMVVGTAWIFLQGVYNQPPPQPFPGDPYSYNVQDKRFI

| IC50 [4] [nM] | Emax at 10 µM ([4]; read-out: Maximum Response) [%] | SMILES | EC50 [1] [nM] | pKd of Antibody for ARM Compound of Formula (I) [2] | % Depletion of CCR2 expressing cells [3] [%] | Emax at 100 µM ([4]; maximum percentage antagonism at maximum concentration tested 100 μM, read-out: Maximum Response) [%] |
| --- | --- | --- | --- | --- | --- | --- |
| – | – | CC(C)N(C)[C@@H]1CC[C@H](N2CC[C@H](Nc3ncnc4ccc(C(F)(F)F)cc34)C2=O)[C@H](NC(=O)C2CCN(C(=O)CCOCCOCCOCCNC(=O)[C@H]3CC(=O)N(C)[C@@H]3c3cccnc3)CC2)C1 [Example 29, N-((1R,2S,5R)-5-(Isopropyl(methyl)amino)-2-((S)-2-oxo-3-((6-(trifluoromethyl)quinazolin-4-yl)amino)pyrrolidin-1-yl)cyclohexyl)-1-(1-((2S,3S)-1-methyl-5-oxo-2-(pyridin-3-yl)pyrrolidin-3-yl)-1-oxo-5,8,11-trioxa-2-azatetradecan-14-oyl)piperidine-4-carboxamide] | 2.51 | 9.3345 | – | – |
| 4660 | 67.1 | CC(C)N(C)[C@@H]1CC[C@H](N2CC[C@H](Nc3ncnc4ccc(C(F)(F)F)cc34)C2=O)[C@H](NC(=O)c2ccc(C3CCN(CCOCCOCCNC(=O)[C@H]4CC(=O)N(C)[C@@H]4c4cccnc4)CC3)cn2)C1 [Example 94, N-((1R,2S,5R)-5-(Isopropyl(methyl)amino)-2-((S)-2-oxo-3-((6-(trifluoromethyl)quinazolin-4-yl)amino)pyrrolidin-1-yl)cyclohexyl)-5-(1-(2-(2-(2-((2S,3S)-1-methyl-5-oxo-2-(pyridin-3-yl)pyrrolidine-3-carboxamido)ethoxy)ethoxy)ethyl)piperidin-4-yl)picolinamide] | 2 | – | 88.66 | – |
| ≥ 10000 | 16.8 | CC(C)N(C)[C@@H]1CC[C@H](N2CC[C@H](Nc3ncnc4ccc(C(F)(F)F)cc34)C2=O)[C@H](NC(=O)c2ccc(N3CCC(C(=O)NCCOCCOCCNC(=O)[C@H]4CC(=O)N(C)[C@@H]4c4cccnc4)CC3)cc2)C1 [Example 130, 1-(4-(((1R,2S,5R)-5-(Isopropyl(methyl)amino)-2-((S)-2-oxo-3-((6-(trifluoromethyl)quinazolin-4-yl)amino)pyrrolidin-1-yl)cyclohexyl)carbamoyl)phenyl)-N-(2-(2-(2-((2S,3S)-1-methyl-5-oxo-2-(pyridin-3-yl)pyrrolidine-3-carboxamido)ethoxy)ethoxy)ethyl)piperidine-4-carboxamide] | 0.631 | – | 81.81 | – |
| ≥ 10000 | 18.2 | CC(C)N(C)[C@@H]1CC[C@H](N2CC[C@H](Nc3ncnc4ccc(C(F)(F)F)cc34)C2=O)[C@H](NC(=O)[C@H]2CC[C@H](c3ccc(C(=O)NCCOCCOCCNC(=O)[C@H]4CC(=O)N(C)[C@@H]4c4cccnc4)cc3)CC2)C1 [Example 140, (2S,3S)-N-(2-(2-(2-(4-((1R,4r)-4-(((1R,2S,5R)-5-(Isopropyl(methyl)amino)-2-((S)-2-oxo-3-((6-(trifluoromethyl)quinazolin-4-yl)amino)pyrrolidin-1-yl)cyclohexyl)carbamoyl)cyclohexyl)benzamido)ethoxy)ethoxy)ethyl)-1-methyl-5-oxo-2-(pyridin-3-yl)pyrrolidine-3-carboxamide] | 0.398 | – | 89.13 | – |
| ≥ 10000 | 13.1 | CC(C)N(C)[C@@H]1CC[C@H](N2CC[C@H](Nc3ncnc4ccc(C(F)(F)F)cc34)C2=O)[C@H](NC(=O)C2CCN(c3ccc(C(=O)NCCOCCOCCNC(=O)[C@H]4CC(=O)N(C)[C@@H]4c4cccnc4)cc3)CC2)C1 [Example 142, N-((1R,2S,5R)-5-(Isopropyl(methyl)amino)-2-((S)-2-oxo-3-((6-(trifluoromethyl)quinazolin-4-yl)amino)pyrrolidin-1-yl)cyclohexyl)-1-(4-((2-(2-(2-((2S,3S)-1-methyl-5-oxo-2-(pyridin-3-yl)pyrrolidine-3-carboxamido)ethoxy)ethoxy)ethyl)carbamoyl)phenyl)piperidine-4-carboxamide] | 0.398 | – | 79.27 | – |
| – | – | CC(C)N(C)[C@@H]1CC[C@H](N2CC[C@H](Nc3ncnc4ccc(C(F)(F)F)cc34)C2=O)[C@H](NC(=O)[C@H]2CC[C@@H](NC(=O)COCCOCCNC(=O)CNC(=O)[C@H]3CC(=O)N(C)[C@@H]3c3cccnc3)CC2)C1 [Example 171, (2S,3S)-N-(2-((2-(2-(2-(((1S,4s)-4-(((1R,2S,5R)-5-(Isopropyl(methyl)amino)-2-((S)-2-oxo-3-((6-(trifluoromethyl)quinazolin-4-yl)amino)pyrrolidin-1-yl)cyclohexyl)carbamoyl)cyclohexyl)amino)-2-oxoethoxy)ethoxy)ethyl)amino)-2-oxoethyl)-1-methyl-5-oxo-2-(pyridin-3-yl)pyrrolidine-3-carboxamide] | – | 8.7865 | – | – |
| 6390 | 69.2 | CC(C)N(C)[C@@H]1CC[C@H](N2CC[C@H](Nc3ncnc4ccc(C(F)(F)F)cc34)C2=O)[C@H](NC(=O)CCOCCN2CCC3(CCC(C(=O)NCCNC(=O)[C@H]4CC(=O)N(C)[C@@H]4c4cccnc4)CC3)CC2)C1 [Example 184, 3-(2-(3-(((1R,2S,5R)-5-(isopropyl(methyl)amino)-2-((S)-2-oxo-3-((6-(trifluoromethyl)quinazolin-4-yl)amino)450yridine450ne-1-yl)cyclohexyl)amino)-3-oxopropoxy)ethyl)-N-(2-((2S,3S)-1-methyl-5-oxo-2-(450yridine-3-yl)pyrrolidine-3-carboxamido)ethyl)-3-azaspiro[5.5]undecane-9-carboxamide, 3Formic acid salt] | 0.251 | – | 85.99 | – |

| SMILES | IC50 [4] [nM] | Emax at 10 µM ([4]; read-out: Maximum Response) [%] | EC50 [1] [nM] | pKd of Antibody for ARM Compound of Formula (I) [2] | % Depletion of CCR2 expressing cells [3] [%] | Emax at 100 µM ([4]; maximum percentage antagonism at maximum concentration tested 100 μM, read-out: Maximum Response) [%] |
| --- | --- | --- | --- | --- | --- | --- |
| CC(C)N(C)[C@@H]1CC[C@H](N2CC[C@H](Nc3ncnc4ccc(C(F)(F)F)cc34)C2=O)[C@H](NC(=O)[C@H]2C[C@@H](NC(=O)CCOCCNC(=O)CCOCCNC(=O)[C@H]3CC(=O)N(C)[C@@H]3c3cccnc3)C2)C1 [Example 44, (2S,3S)-N-(2-(3-((2-(3-(((1S,3s)-3-(((1R,2S,5R)-5-(Isopropyl(methyl)amino)-2-((S)-2-oxo-3-((6-(trifluoromethyl)quinazolin-4-yl)amino)pyrrolidin-1-yl)cyclohexyl)carbamoyl)cyclobutyl)amino)-3-oxopropoxy)ethyl)amino)-3-oxopropoxy)ethyl)-1-methyl-5-oxo-2-(pyridin-3-yl)pyrrolidine-3-carboxamide] | ≥ 100000 | – | 0.631 | – | 91 | 51.5 |
